Key:
NCIH727 = assay: CellTiter-Glo Reagent cancer cell line proliferation assay, NCIH727; assay type: cell-based, human; conditions: Homo sapiens, NCI-H727, 24 h, NCIH727, KRAS(G12V) heterozygous
Description: (§1) The following cancer cell lines were employed: • AsPC-1 human pancreatic adenocarcinoma, homozygous KRAS(G12D), (ATCC, #CRL-1682); A-427 human lung carcinoma, heterozygous KRAS(G12D), (ATCC, #HTB-53); AGS human gastric adenocarcinoma, heterozygous KRAS(G12D), (ATCC, #CRL-1739); GP2D human colon adenocarcinoma, heterozygous KRAS(G12D), (Sigma Aldrich, 95090714); SW1990 human pancreatic adenocarcinoma, homozygous KRAS(G12D), (ATCC, #CRL2172); LU65A human lung giant cell carcinoma, heterozygous KRAS(G12C), (JCRB Cell Bank, #JCRB0054); NCIH727 human lung carcinoid, heterozygous KRAS(G12V), (ATCC, #CRL-5815); MKN1 human gastric adenosquamous carcinoma KRAS (wt), (JCRB Cell Bank, #JCRB0252). Cell lines were cultured according to ATCC, JCRB and Sigma Aldrich recommendations.
(§2) Cells were plated in 96-well tissue culture plates at 4,000 cells/well and incubated at 37° C./5% CO2 for 24 hr in 100 μl of media. 3-fold serial dilutions of each test compound were prepared ranging from 20 μM to 1.02 nM. Cells were then treated with test compounds at various concentrations with a final concentration of 0.5% DMSO/well, and then incubated at 37° C./5% CO2 for 24 hr. 100 μl of CellTiter-Glo® Reagent (Promega Corporation, Madison, WI) was added to each well and processed according manufacturer's protocol. Results were analyzed and IC50-values were calculated in GraphPad 7 software.

AGS = assay: CellTiter-Glo Reagent cancer cell line proliferation assay, AGS; assay type: cell-based, human; conditions: Homo sapiens, 24 h, KRAS(G12D) heterozygous
Description: as §1, §2

MKN1 = assay: CellTiter-Glo Reagent cancer cell line proliferation assay, MKN1; assay type: cell-based; conditions: Homo sapiens, MKN-1; MKN1, KRAS (wt), 24 hr
Description: as §1, §2

GP2D = assay: CellTiter-Glo Reagent cancer cell line proliferation assay, GP2D; assay type: cell-based; conditions: Homo sapiens, KRAS(G12D) heterozygous, 24 hr
Description: as §1, §2

LU65A = assay: CellTiter-Glo Reagent cancer cell line proliferation assay, LU65A; assay type: cell-based, human; conditions: Homo sapiens, 24 h, KRAS(G12C) heterozygous
Description: as §1, §2

KRAS(G12D) = KRAS(G12D) (Homo sapiens, UniProt P01116, G12D); assay: cell-based; assay type: cell-based; set-up: Cell lines SW1990 and GP2D that express KRAS(G12D); host or cells: SW1990; conditions: SW1990, read-out: WB data SW1990 DMax
KRAS(G12D), sequence (P01116 1-188 isoform P01116-2 G12D): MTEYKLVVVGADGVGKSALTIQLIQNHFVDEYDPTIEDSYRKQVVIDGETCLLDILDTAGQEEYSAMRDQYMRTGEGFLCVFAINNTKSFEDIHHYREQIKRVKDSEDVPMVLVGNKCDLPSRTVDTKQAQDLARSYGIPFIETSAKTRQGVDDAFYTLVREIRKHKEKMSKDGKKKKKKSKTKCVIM
Procedure: Cell lines were cultured according to ATCC, JCRB and Sigma Aldrich recommendations.
(§3) Cells were then washed with cold PBS, aspirated and cold RIPA buffer containing a protease/phosphatase inhibitor cocktail was added to lyse cells. After centrifugation, the total protein concentrations of cell lysates were determined using the BCA protein assay. Samples were normalized for equivalent protein concentrations, 5× SDS-PAGE loading buffer added and denatured at 100° C. for 10 min. 20 μl of each sample/well was loaded on a SDS-PAGE gel and electrophoresed for 20 min at 80 V, then 120 V for 1.5 hr. Gels were then electroblotted to nitrocellulose membranes using a wet-transfer method at 250 mA for 2.5 hr. Membranes were incubated with blocking buffer for 1 hr and washed 3 times with TBST for 5 min. Membranes were then incubated with anti-KRAS (Sigma-Aldrich, #SAB1404011) and anti-β-Actin monoclonal antibodies (Cell Signaling Technology, #3700) diluted in blocking buffer at 4° C. overnight per the manufacturer's recommendations. After washing 3 times, blots were incubated with appropriately labeled secondary antibodies for 1 hr at room temperature and washed again. Fluorescence imaging and quantitation was performed using a LI-COR Odyssey. Results was analyzed using GraphPad Prism 7 software. Compound concentrations that induced KRAS degradation (DC50 and DCmax) were calculated using GraphPad Prism 7 software.

KRAS(G12C) = target: T1, KRAS(G12C) (Homo sapiens, UniProt P01116, G12C); assay: KRAS Western Blot Protein Degradation Assay, LU65A; assay type: cell-based; conditions: 24 hr; for DC50: read-out: WB data LU65A DC50; for Dmax: read-out: WB data LU65A DMax
T1 construct: LU65A that expresses KRAS(G12C); host or cells: LU65A
T1 sequence (P01116 1-185 isoform P01116-2 G12C limits assumed): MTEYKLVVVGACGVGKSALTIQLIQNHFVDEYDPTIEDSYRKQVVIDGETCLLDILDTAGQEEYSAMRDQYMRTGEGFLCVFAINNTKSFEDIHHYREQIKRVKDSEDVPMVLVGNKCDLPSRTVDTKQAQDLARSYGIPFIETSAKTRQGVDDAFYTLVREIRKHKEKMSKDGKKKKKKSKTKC
Description: as §1
as §3, with “Cell lines SW1990 and GP2D that express KRAS(G12D), LU65A that expresses KRAS(G12C), and NCIH727 that expresses KRAS(G12V) were seeded in 6- or 12-well tissue culture plates, and after 1 hr, test compounds were added at various concentrations and incubated at 37° C./5% CO2 for 24 hr. Cells” for “Cells”

KRAS(G12V) = target: T2, KRAS(G12V) (Homo sapiens, UniProt P01116, G12V); assay: KRAS Western Blot Protein Degradation Assay, NCIH727; assay type: cell-based
T2 construct: anti-KRAS Western blot degradation by PROTACs recruiting CRBN or VHL
T2 sequence (P01116 1-188 isoform P01116-2 G12V): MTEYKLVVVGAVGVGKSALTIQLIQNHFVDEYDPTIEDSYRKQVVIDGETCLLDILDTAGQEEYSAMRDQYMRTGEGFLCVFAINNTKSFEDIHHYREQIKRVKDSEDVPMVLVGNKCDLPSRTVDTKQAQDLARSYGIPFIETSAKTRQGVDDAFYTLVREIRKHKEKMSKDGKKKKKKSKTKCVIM
Description: as §1
as §3, with “Cell lines SW1990 and GP2D that express KRAS(G12D), LU65A that expresses KRAS(G12C), and NCIH727 that expresses KRAS(G12V) were seeded in 6- or 12-well tissue culture plates, and after 1 hr, test compounds were added at various concentrations and incubated at 37° C./5% CO2 for 24 hr. Cells” for “Cells”

| IC50 (NCIH727) [nM] | IC50 (AGS) [nM] | IC50 (MKN1) [nM] | IC50 (GP2D) [nM] | IC50 (LU65A) [nM] | DC50 (KRAS(G12C)) [nM] | Dmax (KRAS(G12C)) [%] | DC50 (KRAS(G12V); 24 hr, read-out: WB data NCIH727 DC50) [nM] | Dmax (KRAS(G12V); NCI-H727, 24 hr, read-out: WB data NCIH727 DMax) [%] | SMILES | Dmax (KRAS(G12D)) [%] |
| --- | --- | --- | --- | --- | --- | --- | --- | --- | --- | --- |
| < 100 | < 100 | 100 to 1000 | < 100 | < 100 | – | – | – | – | C#Cc1c(F)ccc2cc(O)cc(-c3nc(OC)c4c(N5CC6CCC(C5)N6C(=O)CCC#N)nc(OCC5(CN6CCN(CC7CCN(c8ccc9c(c8)CN(C8CCC(=O)NC8=O)C9=O)CC7)CC6)CC5)nc4c3F)c12 (centres unmarked) [Compound 117] | – |
| – | – | – | – | – | – | – | – | – | C#Cc1c(F)ccc2cc(O)cc(-c3ncc4c(N5CC6CCC(C5)N6)nc(OCC5(CN6CCC(N7CCC(c8ccc9c(c8)CN(C8CCC(=O)NC8=O)C9=O)CC7)CC6)CC5)nc4c3F)c12 (centres unmarked) [Compound 77] | > 50 |
| > 1000 | > 1000 | > 1000 | 100 to 1000 | < 100 | – | – | – | – | O=CO.[2H]C([2H])([2H])Oc1nc(-c2cc(O)cc3ccc(F)c(C#C)c23)c(F)c2nc(OCC3(CN4CCN(CC5CCN(c6ccc7c(c6)CN(C6CCC(=O)NC6=O)C7=O)CC5)CC4)CC3)nc(N3CC4CCC(C3)N4C(=O)C(C#N)CC(F)(F)F)c12 (centres unmarked) [Compound 121] | – |
| – | – | > 1000 | – | < 100 | < 100 | > 50 | – | – | C#Cc1c(F)ccc2cc(O)cc(-c3ncc4c(N5CCN(C(=O)C(=C)F)[C@@H](CC#N)C5)nc(OCC5(CN6CCN(CC7CCN(c8ccc9c(c8)CN(C8CCC(=O)NC8=O)C9=O)CC7)CC6)CC5)nc4c3F)c12 (some centres unmarked) [Compound 105] | – |
| – | – | < 100 | – | < 100 | – | – | – | – | C#Cc1c(F)ccc2cc(O)cc(-c3nc(OC)c4c(N5CCN(C(=O)C=C)[C@@H](CC#N)C5)nc(OCC5(CN6CCN(CC7CCN(c8ccc9c(c8)CN(C8CCC(=O)NC8=O)C9=O)CC7)CC6)CC5)nc4c3F)c12 (some centres unmarked) [Compound 125] | – |
| – | – | – | – | – | – | – | – | – | C#Cc1cccc2cc(O)cc(-c3ncc4c(N5CC6CCC(C5)N6)nc(OCC5(CN6CCN(CC7CCN(CC(=O)N[C@@H](C(=O)N8C[C@@H](O)C[C@@H]8C(=O)NCc8ccc(-c9scnc9C)cc8)C(C)(C)C)CC7)CC6)CC5)nc4c3F)c12 [Compound 52] | > 50 |
| 100 to 1000 | 100 to 1000 | > 1000 | 100 to 1000 | < 100 | – | – | < 100 | > 50 | C#Cc1c(F)ccc2cc(O)cc(-c3ncc4c(N5CC6CCC(C5)N6C(=O)[C@@H](C)C#N)nc(OCC5(CN6CCN(CC7CCN(c8ccc9c(c8)CN(C8CCC(=O)NC8=O)C9=O)CC7)CC6)CC5)nc4c3F)c12 (some centres unmarked) [Compound 109] | – |
| 100 to 1000 | 100 to 1000 | 100 to 1000 | 100 to 1000 | 100 to 1000 | – | – | – | – | [2H]C([2H])([2H])Oc1nc(-c2cc(O)cc3ccc(F)c(C#C)c23)c(F)c2nc(OCC3(CN4CCN(CC5CCN(c6ccc(NC7CCC(=O)NC7=O)cc6)CC5)CC4)CC3)nc(N3CC4CCC(C3)N4C(=O)CC#N)c12 (centres unmarked) [Compound 119] | – |
| 100 to 1000 | > 1000 | 100 to 1000 | > 1000 | < 100 | – | – | – | – | C#Cc1c(F)ccc2cc(O)cc(-c3ncc4c(N5CC6CCC(C5)N6C(=O)[C@H](C)C#N)nc(OCC5(CN6CCN(CC7CCN(c8ccc9c(c8)CN(C8CCC(=O)NC8=O)C9=O)CC7)CC6)CC5)nc4c3F)c12 (some centres unmarked) [Compound 110] | – |
| > 1000 | 100 to 1000 | 100 to 1000 | < 100 | 100 to 1000 | – | – | – | – | C#Cc1c(F)ccc2cc(O)cc(-c3ncc4c(N5CC6CCC(C5)N6C(=O)NC(C)(C)C)nc(OCC5(CN6CCN(CC7CCN(c8ccc9c(c8)CN(C8CCC(=O)NC8=O)C9=O)CC7)CC6)CC5)nc4c3F)c12 (centres unmarked) [Compound 118] | – |
| > 1000 | > 1000 | 100 to 1000 | > 1000 | 100 to 1000 | – | – | – | – | C#Cc1c(F)ccc2cc(O)cc(-c3nc(OC)c4c(N5CCN(C(=O)CC#N)[C@@H](CC#N)C5)nc(OCC5(CN6CCN(CC7CCN(c8ccc9c(c8)CN(C8CCC(=O)NC8=O)C9=O)CC7)CC6)CC5)nc4c3F)c12 (some centres unmarked) [Compound 104] | – |
| > 1000 | 100 to 1000 | 100 to 1000 | 100 to 1000 | 100 to 1000 | – | – | – | – | [2H]C([2H])([2H])Oc1nc(-c2cc(O)cc3ccc(F)c(C#C)c23)c(F)c2nc(OCC3(CN4CCN(CC5CCN(c6ccc7c(c6)CN(C6CCC(=O)NC6=O)C7=O)CC5)CC4)CC3)nc(N3CC4CCC(C3)N4C(=O)C(C)CC#N)c12 (centres unmarked) [Compound 116] | – |
| < 100 | < 100 | > 1000 | < 100 | < 100 | – | – | – | – | C#Cc1c(F)ccc2cc(O)cc(-c3nc(OC)c4c(N5CC6CCC(C5)N6C(=O)NCC(F)(F)F)nc(OCC5(CN6CCN(CC7CCN(c8ccc9c(c8)CN(C8CCC(=O)NC8=O)C9=O)CC7)CC6)CC5)nc4c3F)c12 (centres unmarked) [Compound 123] | – |
| > 1000 | – | > 1000 | – | < 100 | < 100 | > 50 | – | – | C#Cc1c(F)ccc2cc(O)cc(-c3ncc4c(N5CCN(C(=O)C=C)[C@@H](CC#N)C5)nc(OCC5(CN6CCN(CC7CCN(c8ccc9c(c8)CN(C8CCC(=O)NC8=O)C9=O)CC7)CC6)CC5)nc4c3F)c12 (some centres unmarked) [Compound 79] | – |
| > 1000 | 100 to 1000 | > 1000 | 100 to 1000 | < 100 | – | – | – | – | C#Cc1c(F)ccc2cc(O)cc(-c3ncc4c(N5CC6CCC(C5)N6C(=O)/C(C#N)=C/C5CC5)nc(OCC5(CN6CCN(CC7CCN(c8ccc9c(c8)CN(C8CCC(=O)NC8=O)C9=O)CC7)CC6)CC5)nc4c3F)c12 (centres unmarked) [Compound 124] | – |
| 100 to 1000 | < 100 | > 1000 | < 100 | < 100 | – | – | – | – | C#Cc1c(F)ccc2cc(O)cc(-c3nc(OC)c4c(N5CC6CCC(C5)N6C(=O)NCC#N)nc(OCC5(CN6CCN(CC7CCN(c8ccc9c(c8)CN(C8CCC(=O)NC8=O)C9=O)CC7)CC6)CC5)nc4c3F)c12 (centres unmarked) [Compound 122] | – |
| – | – | – | – | – | – | – | – | – | C#Cc1c(F)ccc2cc(O)cc(-c3nc(OC)c4c(N5CC6CCC(C5)N6)nc(OCC5(CN6CCN(C7CCN(c8ccc9c(c8)CN(C8CCC(=O)NC8=O)C9=O)CC7)CC6)CC5)nc4c3F)c12 (centres unmarked) [Compound 82] | > 50 |

Source: patent publication US20260325654A1, “METHODS AND COMPOSITIONS FOR TARGETED PROTEIN DEGRADATION” (Ranok Therapeutics (Hangzhou) Co. Ltd., priority 2023, published 2026)
